We go through two compounds from ChEMBL document CHEMBL5120750, “Bis-bibenzyls, Bibenzyls, and Terpenoids in 33 Genera of the Marchantiophyta (Liverworts): Structures, Synthesis, and Bioactivity” (2022).

Each structure is given as a SMILES string. In brackets after ≈: the same amount, converted by molar mass.

Experiment [1] has as its system Saccharomyces cerevisiae. The experiment in a line: Antibacterial activity against Saccharomyces cerevisiae. It counts as functional.
The test system of experiment [2] is Saccharomyces cerevisiae. In words: Bactericidal activity against Saccharomyces cerevisiae. Type of experiment: functional.

As for `Oc1cc2cc(c1O)Oc1ccc(cc1)CCc1cccc(O)c1Oc1cccc(c1)CC2` [MARCHANTIN A], the lowest concentration to inhibit growth against Saccharomyces cerevisiae [1] (MIC) was 0.98 µg/mL (≈ 2.22 µM). Besides, the MBC (usually the lowest tested concentration that kills the bacteria rather than only halting them) in the experiment on Saccharomyces cerevisiae [2] came to 0.98 µg/mL (≈ 2.22 µM).
`Oc1cccc(CCc2ccc(Oc3cc(CCc4cccc(O)c4)cc(O)c3O)cc2)c1` [PERROTETTIN F]: it took 0.98 µg/mL (≈ 2.21 µM) to inhibit growth with Saccharomyces cerevisiae [1] (MIC). The compound further showed an MBC against Saccharomyces cerevisiae [2] of 0.98 µg/mL (≈ 2.21 µM).
